Laboratory results reported in patent US5260197A, “L-fucose dehydrogenase, a process for production thereof, quantitative assay for L-fucose using said enzyme and a kit for quantitative assay” (Noda Institute for Scientific Research, priority 1988, dated 1993).
Where two headings read alike, the source gives them in different places.

What was measured:
[1] = molecular target: T1, L-fucose dehydrogenase (L-FDH) (Pseudomonas sp, UniProt Q52472); type: biochemical; conditions: for Residual Activity (%): inhibitor or metal salt 2 mM in reaction solution, None = 100
T1 construct: L-FDH was accumulated in the cell portion; made in house; host or cells: Pseudomonas sp; No. 1143 (FERM BP-2056), the natural producing strain isolated from soil; enzyme purified from its cells, not recombinant
T1 sequence (Q52472 1-329): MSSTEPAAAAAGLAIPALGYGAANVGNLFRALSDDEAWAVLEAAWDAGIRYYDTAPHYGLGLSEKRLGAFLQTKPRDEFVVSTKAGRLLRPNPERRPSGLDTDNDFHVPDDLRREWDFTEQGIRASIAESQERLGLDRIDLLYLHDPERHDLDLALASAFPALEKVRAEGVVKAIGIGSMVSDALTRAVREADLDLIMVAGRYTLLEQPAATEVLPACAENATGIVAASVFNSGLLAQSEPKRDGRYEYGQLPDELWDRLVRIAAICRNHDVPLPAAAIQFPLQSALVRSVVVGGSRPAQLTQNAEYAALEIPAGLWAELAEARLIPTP
Procedure: (§1) To 2.5 ml of Tris-imidazole-sodium acetate buffer solution (solution containing 0.12 M each is adjusted to pH of 9.5 with 4 N NaOH) is added 0.2 ml of 15 mM NADP^+ solution After keeping at 37° C. for 5 minutes, 0.1 ml of an enzyme solution is added and 0.2 ml of 150 mM L-fucose solution is further added to the system to initiate the reaction. Immediately thereafter, the reaction mixture is transferred to a cell for measurement of absorbance (1 cm light path) kept at 37° C. and absorbance is measured at the wavelength of 340 nm for 2 minutes or, if necessary, over a longer time period. One unit is an amount of enzyme that produces 1 μmole of NADPH for one minute.

[2] = molecular target: T1, L-fucose dehydrogenase (L-FDH); assay: L-FDH substrate and coenzyme specificity (determination of activity, NADPH at 340 nm); type: biochemical, Pseudomonas sp. No. 1143; conditions: for specificity of the enzyme to substrate sugar (relative activity): L-fucose = 100%, NADP+ as coenzyme; for coenzyme requirement (relative activity): NADP+ = 100%, L-fucose as substrate
Procedure: As shown in the following reaction equation, the enzyme oxidizes L-fucose to L-fuconolactone in the presence of L-fucose and NADP+ and at the same time reduces NADP^+ to NADPH.
Furthermore, the enzyme requires NADP^+ (100%) as coenzyme but reacts very little with NAD^+ (1%).
as §1

[3] = Polyacrylamide gel isoelectrofocusing of L-FDH; type: physicochemical, Pseudomonas sp. No. 1143
[4] = molecular target: T1, L-fucose dehydrogenase (L-FDH); assay: Optimum pH and temperature, pH stability and thermal stability of L-FDH; type: biochemical, Pseudomonas sp. No. 1143
Procedure: By heat treatment at 30° C. for 60 minutes, the enzyme is stable at a pH value of 8.0 to 10.5 but is unstable at a pH value below 6.0.
as §1

[5] = metal salts and inhibitors, 2 mM

Compound: [Ca+2].[Cl-].[Cl-] [CaCl2]
- inhibition and activation of enzyme activity [1, 5]: not observed

Compound: O=S(=O)([O-])[O-].[Cd+2] [CdSO4]
- Residual Activity (%) [1]: 2%

Compound: O=S(=O)([O-])[O-].[Cu+2] [CuSO4]
- inhibition and activation of enzyme activity [1, 5]: not observed

Compound: O=C[C@@H](O)[C@H](O)[C@H](O)CO [D-arabinose]
- specificity of the enzyme to substrate sugar (relative activity) [2]: 1%

Compound: O=C(O)CN(CCN(CC(=O)O)CC(=O)O)CC(=O)O [EDTA]
- inhibition and activation of enzyme activity [1]: not observed

Compound: [Cl][Hg][Cl] [HgCl2]
- Residual Activity (%) [1]: 2%

Compound: NC(=O)CI [Iodoacetamide]
- Residual Activity (%) [1]: 91%

Compound: C[C@H](O)[C@@H](O)[C@@H](O)[C@H](O)C=O [L-fucose]
- specificity of the enzyme to substrate sugar (relative activity) [2]: 100%

Compound: O=C[C@@H](O)[C@H](O)[C@H](O)[C@@H](O)CO [L-galactose]
- specificity of the enzyme to substrate sugar (relative activity) [2]: 96%

Compound: O=S(=O)([O-])[O-].[Mg+2] [MgSO4]
- inhibition and activation of enzyme activity [1, 5]: not observed

Compound: NC(=O)c1ccc[n+]([C@@H]2O[C@H](COP(=O)([O-])OP(=O)(O)OC[C@H]3O[C@@H](n4cnc5c(N)ncnc54)[C@H](OP(=O)(O)O)[C@@H]3O)[C@@H](O)[C@H]2O)c1 [NADP^+, oxidized nicotinamide adenine dinucleotide phosphate]
- coenzyme requirement (relative activity) [2]: 100%

Compound: NC(=O)c1ccc[n+]([C@@H]2O[C@H](COP(=O)([O-])OP(=O)(O)OC[C@H]3O[C@@H](n4cnc5c(N)ncnc54)[C@H](O)[C@@H]3O)[C@@H](O)[C@H]2O)c1 [NAD^+, nicotinamide adenine dinucleotide]
- coenzyme requirement (relative activity) [2]: 1%

Compound: [N-]=[N+]=[N-].[Na+] [NaN3]
- inhibition and activation of enzyme activity [1, 5]: not observed

Compound: O=S(=O)([O-])[O-].[Ni+2] [NiSO4]
- inhibition and activation of enzyme activity [1, 5]: not observed

Compound: O=C(O)c1cc[c]([Hg][Cl])cc1 [PCMB]
- Residual Activity (%) [1]: 18%

Compound: O=S(=O)([O-])[O-].[Zn+2] [ZnSO4]
- Residual Activity (%) [1]: 81%

Compound: c1cnc2c(c1)ccc1cccnc12 [o-phenanthroline]
- inhibition and activation of enzyme activity [1, 5]: not observed

Compound: c1ccc(-c2ccccn2)nc1 [α,α'-dipyridyl]
- inhibition and activation of enzyme activity [1, 5]: not observed

Compound: L-fucose dehydrogenase [L-FDH]
- isoelectric point [3]: 5.2
- pH at which the enzyme is unstable ([4]; heat treatment at 30° C. for 60 minutes): below 6.0
- temperature up to which the enzyme is stable ([4]; heat treatment for 10 minutes, FIG. 4): up to 40 °C
